Test results taken from patent publication US20240415914A1, “Water Dispersible Cannabinoid Compositions” (priority 2021, published 2024).
Read-outs that look alike come from different tables or passages of the source.

Experiments:
[1] = assay type: physicochemical; conditions: stored at room temperature (21-25° C.)
Experimental: At each time period, 0.05 g of powder was dissolved in 10 ml-15 of ethanol, diluted to fall within the analytical range, and injected into the LCMSMS for analysis.

[2] = Stability of cannabinoid and Vitamin E components of Beverage 2 (AB Red) stored at 8° C. and 21-25° C., LCMSMS over 570 days
Experimental: The LCMSMS was calibrated for 0-50 ng/ml cannabinoids with the same resin material used in the preparation of the concentrates. At each time period, 100 μml of beverage was diluted with 10 ml of methanol and injected into the LCMSMS for analysis.

CCCCCc1cc(O)c2c(c1)OC1(C)CCC3C1C2C3(C)C (stereo not shown) [CBL, cannabicyclol]
0.468 µg/mL: Stability of Cannabinoids in AB Red ([2]; 8° C., 510 days)
0.48 µg/mL: Stability of Cannabinoids in AB Red ([2]; 21-25° C., 420 days) | Stability of Cannabinoids in AB Red ([2]; 21-25° C., 480 days)
0.051 mg/g powder: Stability in Powder Concentrate (content by LCMSMS) ([1]; day 1) | Stability in Powder Concentrate (content by LCMSMS) ([1]; day 22) | Stability in Powder Concentrate (content by LCMSMS) ([1]; day 23) | Stability in Powder Concentrate (content by LCMSMS) ([1]; day 26) | Stability in Powder Concentrate (content by LCMSMS) ([1]; day 30) | Stability in Powder Concentrate (content by LCMSMS) ([1]; day 270) | Stability in Powder Concentrate (content by LCMSMS) ([1]; day 480)
0.487 µg/mL: Stability of Cannabinoids in AB Red ([2]; 8° C., 480 days)
0.469 µg/mL: Stability of Cannabinoids in AB Red ([2]; 8° C., 570 days)
0.513 µg/mL: Stability of Cannabinoids in AB Red ([2]; 8° C., 18 days)
0.50 µg/mL: Stability of Cannabinoids in AB Red ([2]; 21-25° C., 1 days) | Stability of Cannabinoids in AB Red ([2]; 21-25° C., 2 days) | Stability of Cannabinoids in AB Red ([2]; 21-25° C., 3 days) | Stability of Cannabinoids in AB Red ([2]; 21-25° C., 8 days) | Stability of Cannabinoids in AB Red ([2]; 21-25° C., 10 days) | Stability of Cannabinoids in AB Red ([2]; 21-25° C., 11 days) | Stability of Cannabinoids in AB Red ([2]; 21-25° C., 12 days) | Stability of Cannabinoids in AB Red ([2]; 21-25° C., 15 days) | Stability of Cannabinoids in AB Red ([2]; 21-25° C., 18 days) | Stability of Cannabinoids in AB Red ([2]; 21-25° C., 24 days) | Stability of Cannabinoids in AB Red ([2]; 21-25° C., 60 days) | Stability of Cannabinoids in AB Red ([2]; 21-25° C., 120 days) | Stability of Cannabinoids in AB Red ([2]; 21-25° C., 180 days) | Stability of Cannabinoids in AB Red ([2]; 21-25° C., 300 days) | Stability of Cannabinoids in AB Red ([2]; 21-25° C., 330 days)
0.048 mg/g powder: Stability in Powder Concentrate (content by LCMSMS) ([1]; day 15) | Stability in Powder Concentrate (content by LCMSMS) ([1]; day 29) | Stability in Powder Concentrate (content by LCMSMS) ([1]; day 120) | Stability in Powder Concentrate (content by LCMSMS) ([1]; day 540)
0.511 µg/mL: Stability of Cannabinoids in AB Red ([2]; 8° C., 29 days) | Stability of Cannabinoids in AB Red ([2]; 8° C., 30 days)
0.494 µg/mL: Stability of Cannabinoids in AB Red ([2]; 8° C., 420 days)
0.492 µg/mL: Stability of Cannabinoids in AB Red ([2]; 8° C., 450 days)
0.499 µg/mL: Stability of Cannabinoids in AB Red ([2]; 8° C., 3 days) | Stability of Cannabinoids in AB Red ([2]; 8° C., 12 days)
0.052 mg/g powder: Stability in Powder Concentrate (content by LCMSMS) ([1]; day 5) | Stability in Powder Concentrate (content by LCMSMS) ([1]; day 11) | Stability in Powder Concentrate (content by LCMSMS) ([1]; day 12) | Stability in Powder Concentrate (content by LCMSMS) ([1]; day 18) | Stability in Powder Concentrate (content by LCMSMS) ([1]; day 19) | Stability in Powder Concentrate (content by LCMSMS) ([1]; day 210) | Stability in Powder Concentrate (content by LCMSMS) ([1]; day 390) | Stability in Powder Concentrate (content by LCMSMS) ([1]; day 450)
0.502 µg/mL: Stability of Cannabinoids in AB Red ([2]; 8° C., 16 days) | Stability of Cannabinoids in AB Red ([2]; 8° C., 23 days) | Stability of Cannabinoids in AB Red ([2]; 8° C., 26 days)
0.49 µg/mL: Stability of Cannabinoids in AB Red ([2]; 21-25° C., 19 days) | Stability of Cannabinoids in AB Red ([2]; 21-25° C., 22 days) | Stability of Cannabinoids in AB Red ([2]; 21-25° C., 29 days) | Stability of Cannabinoids in AB Red ([2]; 21-25° C., 90 days) | Stability of Cannabinoids in AB Red ([2]; 21-25° C., 150 days) | Stability of Cannabinoids in AB Red ([2]; 21-25° C., 210 days) | Stability of Cannabinoids in AB Red ([2]; 21-25° C., 240 days) | Stability of Cannabinoids in AB Red ([2]; 21-25° C., 270 days) | Stability of Cannabinoids in AB Red ([2]; 21-25° C., 390 days) | Stability of Cannabinoids in AB Red ([2]; 21-25° C., 450 days)
0.489 µg/mL: Stability of Cannabinoids in AB Red ([2]; 8° C., 300 days)
0.510 µg/mL: Stability of Cannabinoids in AB Red ([2]; 8° C., 0 days) | Stability of Cannabinoids in AB Red ([2]; 8° C., 15 days) | Stability of Cannabinoids in AB Red ([2]; 8° C., 19 days) | Stability of Cannabinoids in AB Red ([2]; 8° C., 25 days)
0.501 µg/mL: Stability of Cannabinoids in AB Red ([2]; 8° C., 5 days) | Stability of Cannabinoids in AB Red ([2]; 8° C., 11 days) | Stability of Cannabinoids in AB Red ([2]; 8° C., 90 days) | Stability of Cannabinoids in AB Red ([2]; 8° C., 150 days)
0.514 µg/mL: Stability of Cannabinoids in AB Red ([2]; 8° C., 17 days)
0.506 µg/mL: Stability of Cannabinoids in AB Red ([2]; 8° C., 180 days)
0.505 µg/mL: Stability of Cannabinoids in AB Red ([2]; 8° C., 10 days) | Stability of Cannabinoids in AB Red ([2]; 8° C., 330 days)
0.504 µg/mL: Stability of Cannabinoids in AB Red ([2]; 8° C., 270 days)
0.51 µg/mL: Stability of Cannabinoids in AB Red ([2]; 21-25° C., 0 days) | Stability of Cannabinoids in AB Red ([2]; 21-25° C., 5 days) | Stability of Cannabinoids in AB Red ([2]; 21-25° C., 9 days) | Stability of Cannabinoids in AB Red ([2]; 21-25° C., 16 days) | Stability of Cannabinoids in AB Red ([2]; 21-25° C., 17 days) | Stability of Cannabinoids in AB Red ([2]; 21-25° C., 23 days) | Stability of Cannabinoids in AB Red ([2]; 21-25° C., 25 days) | Stability of Cannabinoids in AB Red ([2]; 21-25° C., 26 days) | Stability of Cannabinoids in AB Red ([2]; 21-25° C., 30 days)
0.495 µg/mL: Stability of Cannabinoids in AB Red ([2]; 8° C., 22 days)
0.490 µg/mL: Stability of Cannabinoids in AB Red ([2]; 8° C., 210 days) | Stability of Cannabinoids in AB Red ([2]; 8° C., 240 days)
0.496 µg/mL: Stability of Cannabinoids in AB Red ([2]; 8° C., 8 days) | Stability of Cannabinoids in AB Red ([2]; 8° C., 9 days)
0.049 mg/g powder: Stability in Powder Concentrate (content by LCMSMS) ([1]; day 2) | Stability in Powder Concentrate (content by LCMSMS) ([1]; day 16) | Stability in Powder Concentrate (content by LCMSMS) ([1]; day 17) | Stability in Powder Concentrate (content by LCMSMS) ([1]; day 180) | Stability in Powder Concentrate (content by LCMSMS) ([1]; day 240) | Stability in Powder Concentrate (content by LCMSMS) ([1]; day 330)
0.508 µg/mL: Stability of Cannabinoids in AB Red ([2]; 8° C., 2 days) | Stability of Cannabinoids in AB Red ([2]; 8° C., 24 days)
0.488 µg/mL: Stability of Cannabinoids in AB Red ([2]; 8° C., 120 days)
0.47 µg/mL: Stability of Cannabinoids in AB Red ([2]; 21-25° C., 510 days) | Stability of Cannabinoids in AB Red ([2]; 21-25° C., 540 days) | Stability of Cannabinoids in AB Red ([2]; 21-25° C., 570 days)
0.491 µg/mL: Stability of Cannabinoids in AB Red ([2]; 8° C., 60 days) | Stability of Cannabinoids in AB Red ([2]; 8° C., 390 days)
0.470 µg/mL: Stability of Cannabinoids in AB Red ([2]; 8° C., 540 days)
0.050 mg/g powder: Stability in Powder Concentrate (content by LCMSMS) ([1]; day 0) | Stability in Powder Concentrate (content by LCMSMS) ([1]; day 3) | Stability in Powder Concentrate (content by LCMSMS) ([1]; day 8) | Stability in Powder Concentrate (content by LCMSMS) ([1]; day 9) | Stability in Powder Concentrate (content by LCMSMS) ([1]; day 10) | Stability in Powder Concentrate (content by LCMSMS) ([1]; day 24) | Stability in Powder Concentrate (content by LCMSMS) ([1]; day 25) | Stability in Powder Concentrate (content by LCMSMS) ([1]; day 60) | Stability in Powder Concentrate (content by LCMSMS) ([1]; day 90) | Stability in Powder Concentrate (content by LCMSMS) ([1]; day 150) | Stability in Powder Concentrate (content by LCMSMS) ([1]; day 300) | Stability in Powder Concentrate (content by LCMSMS) ([1]; day 360) | Stability in Powder Concentrate (content by LCMSMS) ([1]; day 420) | Stability in Powder Concentrate (content by LCMSMS) ([1]; day 510) | Stability in Powder Concentrate (content by LCMSMS) ([1]; day 570)
0.512 µg/mL: Stability of Cannabinoids in AB Red ([2]; 8° C., 1 days)
